{"source": "the METLIN SMRT retention time set (Domingo-Almenara et al. 2019)", "assay": "gradient 5% acetonitrile 3 min, to 50% in 2 min, to 85% in 15 min, held 3 min, 100 µL/min", "settings": "column: Zorbax Extend-C18 2.1 x 50 mm; eluents: water / acetonitrile, 0.1% formic acid", "in_short": "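The system's dead and dwell volumes were 40 μL and 900 μL, with a Zorbax Extend-C18 column (2.1 × 50 mm, 1.8 μm) run at 100 μL/min in water and acetonitrile containing 0.1% formic acid each. Pure standards were analyzed in mixtures of ~100 molecules by HPLC–quadrupole time-of-flight mass spectrometry in positive and negative ionization mode. Retention time was assigned from computationally picked, manually inspected adduct peaks.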", "data": [{"smiles": "CC1CC(=O)N(CC(=O)Nc2cccc(C(F)(F)F)c2)c2ccccc2S1(=O)=O", "note": "(configuration not stated)", "values": [{"measurement": "RP-LC retention time", "value": 875, "unit": "s"}]}, {"smiles": "COc1ccc(NC(=O)N2CCCC(C)(C(=O)NCc3ccccc3)C2)cc1OC", "note": "(configuration not stated)", "values": [{"measurement": "RP-LC retention time", "value": 846, "unit": "s"}]}, {"smiles": "CCC(C)NC(=O)N1CCN(Cc2nc3cc(C(=O)N4CCCC4)ccc3n2C)CC1", "note": "(configuration not stated)", "values": [{"measurement": "RP-LC retention time", "value": 581, "unit": "s"}]}, {"smiles": "CC(C)CCN1CCC(N2CCN(S(=O)(=O)Cc3ccccc3)CC2)C1=O", "note": "(configuration not stated)", "values": [{"measurement": "RP-LC retention time", "value": 646, "unit": "s"}]}, {"smiles": "CC(C)(C)NC(=O)c1csc(-c2ccc(N3CCCC3)nc2)n1", "values": [{"measurement": "RP-LC retention time", "value": 670, "unit": "s"}]}, {"smiles": "O=S(=O)(c1ccccc1)N1CCC(c2nc(CCOCC3CC3)no2)C1", "note": "(configuration not stated)", "values": [{"measurement": "RP-LC retention time", "value": 896, "unit": "s"}]}, {"smiles": "CCOc1ccccc1CN1CC(CO)C2(CCNCC2)C1", "note": "(configuration not stated)", "values": [{"measurement": "RP-LC retention time", "value": 520, "unit": "s"}]}, {"smiles": "Cc1cccc(NC(=O)Cn2nc(N(C)C)c3ccccc3c2=O)c1C", "values": [{"measurement": "RP-LC retention time", "value": 849, "unit": "s"}]}, {"smiles": "O=C(NCc1cc(F)cc(F)c1)c1cn2c(n1)CCCC2", "values": [{"measurement": "RP-LC retention time", "value": 599, "unit": "s"}]}, {"smiles": "Cc1ccc(C)c(NC(=O)N2CCc3nc[nH]c3C2)c1", "values": [{"measurement": "RP-LC retention time", "value": 580, "unit": "s"}]}, {"smiles": "Cc1cccc(-c2noc(-c3cc(N4CCN(C)CC4)nc4ccccc34)n2)c1", "values": [{"measurement": "RP-LC retention time", "value": 837, "unit": "s"}]}, {"smiles": "COc1ccc(OC)c(S(=O)(=O)N2CCC(c3noc(-c4ccccc4C)n3)CC2)c1", "values": [{"measurement": "RP-LC retention time", "value": 1140, "unit": "s"}]}, {"smiles": "Cc1ccc(-c2nnc(-c3ccccc3)o2)cc1S(=O)(=O)N1CCC(C)CC1", "values": [{"measurement": "RP-LC retention time", "value": 1210, "unit": "s"}]}, {"smiles": "O=C(NCC1CCCO1)c1nc(-c2ccnc(N3CCCC3)c2)no1", "note": "(configuration not stated)", "values": [{"measurement": "RP-LC retention time", "value": 597, "unit": "s"}]}, {"smiles": "Cc1noc(C)c1-c1ccc(S(=O)(=O)Nc2ccc3c(c2)OCCO3)cc1", "values": [{"measurement": "RP-LC retention time", "value": 880, "unit": "s"}]}, {"smiles": "COc1ccc(NC(=O)C2CC(=O)N(c3n[nH]c4cccc(F)c34)C2)c(OC)c1", "note": "(configuration not stated)", "values": [{"measurement": "RP-LC retention time", "value": 713, "unit": "s"}]}, {"smiles": "COc1ccc(-c2noc(C3CCCN3C(=O)c3ccc(C#N)cc3)n2)cc1OC", "note": "(configuration not stated)", "values": [{"measurement": "RP-LC retention time", "value": 783, "unit": "s"}]}, {"smiles": "CCCCC(=O)Nc1nc(-c2ccc3c(c2)NC(=O)C(C)O3)cs1", "note": "(configuration not stated)", "values": [{"measurement": "RP-LC retention time", "value": 863, "unit": "s"}]}, {"smiles": "COc1ccc(-c2cn3c(CC(=O)Nc4nc5ccc(C)cc5s4)csc3n2)cc1OC", "values": [{"measurement": "RP-LC retention time", "value": 783, "unit": "s"}]}, {"smiles": "Cc1cc(C)cc(NC(=O)CN2C(=O)CC(C)S(=O)(=O)c3ccccc32)c1", "note": "(configuration not stated)", "values": [{"measurement": "RP-LC retention time", "value": 846, "unit": "s"}]}, {"smiles": "CC1CN2C=NC(N3CCN(C(=O)Nc4ccc(C(F)(F)F)cc4)CC3)=CC2=N1", "note": "(configuration not stated)", "values": [{"measurement": "RP-LC retention time", "value": 687, "unit": "s"}]}, {"smiles": "CN(C)C(=O)CC1CCOC2(CCN(C(=O)CCn3cnnn3)CC2)C1", "note": "(configuration not stated)", "values": [{"measurement": "RP-LC retention time", "value": 604, "unit": "s"}]}, {"smiles": "CCNc1cc(N2CCCC(CCC(=O)NC(C)C)C2)ncn1", "note": "(configuration not stated)", "values": [{"measurement": "RP-LC retention time", "value": 601, "unit": "s"}]}, {"smiles": "CCCC(=O)Nc1cc2c(cc1N1CCC(C(=O)OCC)CC1)n(C)c(=O)c(=O)n2C", "values": [{"measurement": "RP-LC retention time", "value": 804, "unit": "s"}]}, {"smiles": "COc1cc(CN2CC(Oc3ccc(-c4noc(-c5ccncc5)n4)cc3)C2)cc(OC)c1", "values": [{"measurement": "RP-LC retention time", "value": 728, "unit": "s"}]}, {"smiles": "COc1ccc(-c2noc(-c3cccnc3N3CCN(c4ccccc4F)CC3)n2)cc1", "values": [{"measurement": "RP-LC retention time", "value": 1370, "unit": "s"}]}, {"smiles": "CCc1noc2nc(C)n(CC(=O)NCCC3=CCCCC3)c(=O)c12", "values": [{"measurement": "RP-LC retention time", "value": 908, "unit": "s"}]}, {"smiles": "O=C(c1ccc(Cl)cc1)N(CC1CCOC1)C1CC1", "note": "(configuration not stated)", "values": [{"measurement": "RP-LC retention time", "value": 791, "unit": "s"}]}, {"smiles": "Cn1c(NC(=O)c2cccc([N+](=O)[O-])c2)c(-c2cccs2)c(=O)c2ccccc21", "values": [{"measurement": "RP-LC retention time", "value": 701, "unit": "s"}]}, {"smiles": "COc1ccc(-c2nnc(COc3ccc(NC(=O)C4CCC4)cc3)o2)cc1", "values": [{"measurement": "RP-LC retention time", "value": 826, "unit": "s"}]}, {"smiles": "CSc1ccc(-c2nc3cc(C)ccn3c2Nc2ccc(Cl)cc2)cc1", "values": [{"measurement": "RP-LC retention time", "value": 840, "unit": "s"}]}, {"smiles": "COc1ccc(N2C(=O)CCC(C(=O)NC3CCCCCC3)C2c2ccc(F)cc2)cc1", "note": "(configuration not stated)", "values": [{"measurement": "RP-LC retention time", "value": 839, "unit": "s"}]}, {"smiles": "C[C@@H]1COC(Nc2ccc3ncnc(Nc4ccc(OCc5nccs5)c(Cl)c4)c3c2)=N1", "values": [{"measurement": "RP-LC retention time", "value": 634, "unit": "s"}]}, {"smiles": "O=C1CC(c2noc(-c3ccccc3)n2)CN1c1ccccc1", "note": "(configuration not stated)", "values": [{"measurement": "RP-LC retention time", "value": 921, "unit": "s"}]}, {"smiles": "Cc1cc(NC(=O)CN2CCc3[nH]c4c(C)ccc(C)c4c(=O)c3C2)ccc1F", "values": [{"measurement": "RP-LC retention time", "value": 666, "unit": "s"}]}, {"smiles": "O=C(Cn1nc2n(c1=O)CCCCC2)Nc1ccc(F)c(Cl)c1", "values": [{"measurement": "RP-LC retention time", "value": 729, "unit": "s"}]}, {"smiles": "COc1ccc(CC(=O)Nc2nnc(C3CC(=O)N(c4ccc(Cl)cc4)C3)o2)cc1", "note": "(configuration not stated)", "values": [{"measurement": "RP-LC retention time", "value": 761, "unit": "s"}]}, {"smiles": "Cc1cc(C)n(CCNC(=O)c2ccc(N3CCOCC3)nn2)n1", "values": [{"measurement": "RP-LC retention time", "value": 572, "unit": "s"}]}, {"smiles": "CC(=O)c1ccc(NC(=O)COc2cc(C)nc(N3CCCCCC3)n2)cc1", "values": [{"measurement": "RP-LC retention time", "value": 642, "unit": "s"}]}, {"smiles": "O=C(CN1C(=O)c2ccccc2C1=O)NCC1(c2cccs2)CCCCC1", "values": [{"measurement": "RP-LC retention time", "value": 936, "unit": "s"}]}, {"smiles": "Cc1ccc(Oc2cccc(NC(=O)Cc3noc4ccccc34)c2)nn1", "values": [{"measurement": "RP-LC retention time", "value": 699, "unit": "s"}]}, {"smiles": "O=C(Cc1ccccc1F)NC(c1ccccc1)c1nnc(N2CCCC2)o1", "note": "(configuration not stated)", "values": [{"measurement": "RP-LC retention time", "value": 784, "unit": "s"}]}, {"smiles": "COC(=O)c1sc2ncccc2c1NC(=O)c1cccc(C)c1", "values": [{"measurement": "RP-LC retention time", "value": 972, "unit": "s"}]}, {"smiles": "CCCN1CCN(C(=O)C2CCN(c3cnn(CCC)c(=O)c3)CC2)CC1", "values": [{"measurement": "RP-LC retention time", "value": 570, "unit": "s"}]}, {"smiles": "CC(C)n1cnc2cc(CNC(=O)c3ccc(F)cc3Cl)ccc21", "values": [{"measurement": "RP-LC retention time", "value": 619, "unit": "s"}]}, {"smiles": "Cn1c(SCc2ccc([N+](=O)[O-])cc2)nnc1-c1cccnc1", "values": [{"measurement": "RP-LC retention time", "value": 627, "unit": "s"}]}, {"smiles": "CSc1ccc(-c2nc3cccc(C)n3c2Nc2ccc3c(c2)OCO3)cc1", "values": [{"measurement": "RP-LC retention time", "value": 712, "unit": "s"}]}, {"smiles": "NC(=O)CNC(=O)c1sc2ncccc2c1-n1cccc1", "values": [{"measurement": "RP-LC retention time", "value": 622, "unit": "s"}]}, {"smiles": "COCCNCc1ccc(-c2cccc(C(F)(F)F)c2)o1", "values": [{"measurement": "RP-LC retention time", "value": 662, "unit": "s"}]}, {"smiles": "CCc1nc2c(NC(=O)c3ccc(OC)cc3)cccn2n1", "values": [{"measurement": "RP-LC retention time", "value": 819, "unit": "s"}]}, {"smiles": "c1cc(N2CCCCCC2)ncc1-c1noc(CN2CCCC2)n1", "values": [{"measurement": "RP-LC retention time", "value": 586, "unit": "s"}]}, {"smiles": "Cn1ccc(C(=O)Nc2ccc(S(C)(=O)=O)cc2)n1", "values": [{"measurement": "RP-LC retention time", "value": 613, "unit": "s"}]}, {"smiles": "Cc1noc(-c2cc(=O)n(CC(=O)Nc3ccc(N(C)C)cc3)c3ccccc23)n1", "values": [{"measurement": "RP-LC retention time", "value": 650, "unit": "s"}]}, {"smiles": "Cc1cc(N2CCN(C)CC2)nc(N2CCN(S(=O)(=O)c3cc(C)c(C)cc3C)CC2)n1", "values": [{"measurement": "RP-LC retention time", "value": 598, "unit": "s"}]}, {"smiles": "CCCCC(=O)Nc1cnc(N2CCNCC2)c(C(=O)N2CCCC2)c1", "values": [{"measurement": "RP-LC retention time", "value": 595, "unit": "s"}]}, {"smiles": "CCS(=O)(=O)N1CCCc2cc(C(=O)Nc3cc(OC)ccc3OC)ccc21", "values": [{"measurement": "RP-LC retention time", "value": 954, "unit": "s"}]}, {"smiles": "O=C(NCc1ccccc1Cl)C1CCN(c2cncnc2N2CCCC2)CC1", "values": [{"measurement": "RP-LC retention time", "value": 677, "unit": "s"}]}, {"smiles": "Cc1ccc(C)c(CNC(=O)c2cc3c(=O)n(C)c4ccccc4n3n2)c1", "values": [{"measurement": "RP-LC retention time", "value": 966, "unit": "s"}]}, {"smiles": "NC(=O)[C@@H](CCC(F)(F)F)N(Cc1ccc(-c2ncon2)cc1F)S(=O)(=O)c1ccc(Cl)cc1", "values": [{"measurement": "RP-LC retention time", "value": 1030, "unit": "s"}]}, {"smiles": "Cc1cnc2n(c1=O)C(CC(=O)NCCc1ccc(S(N)(=O)=O)cc1)CS2", "note": "(configuration not stated)", "values": [{"measurement": "RP-LC retention time", "value": 575, "unit": "s"}]}, {"smiles": "CC(C)Oc1ccc(-c2noc(Cn3ncn4nc(-c5cccs5)cc4c3=O)n2)cc1", "values": [{"measurement": "RP-LC retention time", "value": 1150, "unit": "s"}]}, {"smiles": "CCCS(=O)(=O)N1CC2(CCCCC2)CC1COCc1ccccc1", "note": "(configuration not stated)", "values": [{"measurement": "RP-LC retention time", "value": 1260, "unit": "s"}]}, {"smiles": "COC(=O)C1=CN(c2ccccc2C)c2ccccc2S1(=O)=O", "values": [{"measurement": "RP-LC retention time", "value": 848, "unit": "s"}]}, {"smiles": "CC(C)CN(Cc1cccnc1)C1CN(S(=O)(=O)Cc2ccccc2F)C1", "values": [{"measurement": "RP-LC retention time", "value": 734, "unit": "s"}]}, {"smiles": "COc1ccc(Cl)c2c(=O)c3c([nH]c12)CCN(CC(=O)NCc1ccc(C)cc1)C3", "values": [{"measurement": "RP-LC retention time", "value": 630, "unit": "s"}]}, {"smiles": "Cc1nnc(-c2ccc3ccn(CC(=O)Nc4cccc(C#N)c4)c3c2)o1", "values": [{"measurement": "RP-LC retention time", "value": 798, "unit": "s"}]}, {"smiles": "O=S(=O)(NCC1CCN(Cc2ccco2)CC1)c1ccc(F)c(Cl)c1", "values": [{"measurement": "RP-LC retention time", "value": 575, "unit": "s"}]}]}
